Experimental data reported in publication PMC6934184, “Selective DNA-PKcs inhibition extends the therapeutic index of localized radiotherapy and chemotherapy” (The Journal of Clinical Investigation, 2019).

Target: T1, MAPK11 (p38 beta) (Homo sapiens, UniProt Q15759)
T1 construct: purchased Thermo Fisher Scientific (Life Technologies) SelectScreen
Experiment: SelectScreen Z'LYTE
Assay type: biochemical
Procedure, shortened: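 Percent values come from Thermo SelectScreen profiling of NU5455, combining activity and binding assays. CSF1R was run in Z'LYTE format at Km app ATP, and CAMK1 in Adapta format with ATP listed at 10.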

T1 sequence (Q15759 whole entry): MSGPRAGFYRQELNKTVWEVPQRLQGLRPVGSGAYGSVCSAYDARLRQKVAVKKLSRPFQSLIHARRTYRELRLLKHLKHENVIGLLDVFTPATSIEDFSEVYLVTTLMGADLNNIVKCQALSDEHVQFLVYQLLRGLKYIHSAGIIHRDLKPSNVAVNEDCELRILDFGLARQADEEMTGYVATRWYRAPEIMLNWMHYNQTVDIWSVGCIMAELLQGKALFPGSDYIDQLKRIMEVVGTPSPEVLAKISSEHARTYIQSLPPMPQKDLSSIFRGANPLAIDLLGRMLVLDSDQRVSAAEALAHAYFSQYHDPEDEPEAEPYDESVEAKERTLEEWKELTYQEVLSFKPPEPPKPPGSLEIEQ

With `CN(C(=O)CN1CCOCC1)c1ccc2sc3c(-c4cccc5c(=O)cc(N6CC7CCC(C6)O7)oc45)cccc3c2c1` [NU5455] the inhibition at 1 µM was 9.5%.
